Source: PubChem BioAssay (NCI)
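Five compound concentrations were applied to cells in 96-well plates for 48 hours; endpoints were derived by simple linear interpolation of the resulting dose-response curve. GI50 is the concentration that inhibits growth by half. TGI: concentration producing complete growth inhibition.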

Legend:
Assay in all cases: DTP human tumour cell line panel, 48 h
NCI-H226 lung = system: NCI-H226 lung
NCI-H23 lung = system: NCI-H23 lung
NCI-H460 lung = system: NCI-H460 lung
NCI-H522 lung = system: NCI-H522 lung
NCI/ADR-RES ovarian = system: NCI/ADR-RES ovarian
OVCAR-3 ovarian = system: OVCAR-3 ovarian
OVCAR-4 ovarian = system: OVCAR-4 ovarian
OVCAR-5 ovarian = system: OVCAR-5 ovarian
OVCAR-8 ovarian = system: OVCAR-8 ovarian
PC-3 prostate = system: PC-3 prostate
RPMI-8226 leukemia = system: RPMI-8226 leukemia
RXF 393 renal = system: RXF 393 renal
SF-268 CNS = system: SF-268 CNS
SF-295 CNS = system: SF-295 CNS
SF-539 CNS = system: SF-539 CNS
SK-MEL-2 melanoma = system: SK-MEL-2 melanoma
SK-MEL-28 melanoma = system: SK-MEL-28 melanoma
SK-MEL-5 melanoma = system: SK-MEL-5 melanoma
SK-OV-3 ovarian = system: SK-OV-3 ovarian
SN12C renal = system: SN12C renal
SNB-19 CNS = system: SNB-19 CNS
SNB-75 CNS = system: SNB-75 CNS
SR leukemia = system: SR leukemia
SW-620 colon = system: SW-620 colon
T-47D breast = system: T-47D breast
TK-10 renal = system: TK-10 renal
U251 CNS = system: U251 CNS
UACC-257 melanoma = system: UACC-257 melanoma
UACC-62 melanoma = system: UACC-62 melanoma
UO-31 renal = system: UO-31 renal

## C#CCNC(=O)CCC(=O)OC[C@]12CC[C@@H](C(=C)C)[C@@H]1C1CC[C@@H]3[C@@]4(C)CCCNC(C)(C)[C@@H]4CC[C@@]3(C)[C@]1(C)CC2 (some centres undefined)
NCI-H226 lung
  TGI: 18.3 µM
NCI-H23 lung
  GI50: 7.89 µM
  TGI: 16.1 µM
NCI-H460 lung
  GI50: 7.89 µM
  TGI: 18.6 µM
NCI-H522 lung
  GI50: 11.7 µM
  TGI: 25.4 µM
NCI/ADR-RES ovarian
  GI50: 5.48 µM
  TGI: 16.6 µM
OVCAR-3 ovarian
  GI50: 7.73 µM
  TGI: 18.2 µM
OVCAR-4 ovarian
  GI50: 9.11 µM
  TGI: 20.8 µM
OVCAR-5 ovarian
  GI50: 9.38 µM
  TGI: 17.9 µM
OVCAR-8 ovarian
  GI50: 11.1 µM
  TGI: 33.8 µM
PC-3 prostate
  GI50: 4.8 µM
  TGI: 16.3 µM
RPMI-8226 leukemia
  GI50: 4.15 µM
  TGI: 20.7 µM
RXF 393 renal
  GI50: 3.51 µM
  TGI: 13.6 µM
SF-268 CNS
  GI50: 10.5 µM
  TGI: 23.8 µM
SF-295 CNS
  GI50: 3.54 µM
  TGI: 12.2 µM
SF-539 CNS
  GI50: 7.48 µM
  TGI: 15.7 µM
SK-MEL-2 melanoma
  GI50: 11.7 µM
  TGI: 23.3 µM
SK-MEL-28 melanoma
  GI50: 8.2 µM
  TGI: 16.5 µM
SK-MEL-5 melanoma
  GI50: 6.78 µM
  TGI: 14.4 µM
SK-OV-3 ovarian
  GI50: 9.94 µM
  TGI: 20 µM
SN12C renal
  GI50: 7.89 µM
  TGI: 16.7 µM
SNB-19 CNS
  GI50: 8.91 µM
  TGI: 17.6 µM
SNB-75 CNS
  GI50: 9.12 µM
  TGI: 18.7 µM
SR leukemia
  GI50: > 64.8 µM
  TGI: > 64.8 µM
SW-620 colon
  GI50: 7.25 µM
  TGI: 16.7 µM
T-47D breast
  GI50: 8.06 µM
  TGI: 21.1 µM
TK-10 renal
  GI50: 10.1 µM
  TGI: 22 µM
U251 CNS
  GI50: 6.62 µM
  TGI: 16.8 µM
UACC-257 melanoma
  GI50: 2.51 µM
  TGI: 9.16 µM
UACC-62 melanoma
  GI50: 9.04 µM
  TGI: 18.1 µM
UO-31 renal
  GI50: 6.96 µM
  TGI: 14.9 µM
